Experiment: Water solubility
Assay type: physicochemical
Conditions: aqueous buffer, pH 6.8, the substance or its hydrochloride

solubility: 2.17 mg/mL
Structure (SMILES): CNCc1cn(S(=O)(=O)c2cccc(F)c2)c(-c2ccc(F)cc2F)c1OC [Chemical Formula 1, 1-(5-(2,4-difluorophenyl)-1-((3-fluorophenyl)sulfonyl)-4-methoxy-1H-pyrrol-3-yl)-N-methylmethanamine]
